Test results as given in patent US6710066B2, “Photochemotherapeutic method using 5-aminolevulinic acid and other precursors of endogenous porphyrins” (priority 1989, dated 2004).

Key:
[1] = following intravenous injection; occasionally more than two months; cited from earlier work
[2] = very large doses; cited from earlier work
[3] = test system: P. yoelii; assay: ALA-induced fluorescence within erythrocytes parasitized by P. yoelii, mice given ALA; conditions: ALA injected into infected mice

Row | SMILES | persistence of photosensitizing amount of porphyrin in the skin [1] | effect on motor nerve conduction velocity [2] | PpIX accumulation in non-infected erythrocytes and leukocytes [3] | PpIX accumulation in plasmodia within erythrocytes [3]
1 | CC1=C(CCC(=O)O)c2cc3[nH]c(cc4nc(cc5[nH]c(cc1n2)c(C)c5C(C)O)C(C)=C4C(C)O)c(C)c3CCC(=O)O (stereo not shown) [HpIX, Hematoporphyrin IX, reference compound] | at least two weeks | transient decrease in motor nerve conduction velocity | – | –
2 | NCC(=O)CCC(=O)O [5-aminolevulinic acid (ALA)] | – | – | no such accumulation of protoporphyrin | accumulation of fluorescing and photosensitizing concentrations of protoporphyrin within metabolically active parasites
